# Results published in publication PMC3125149, “SCYX-7158, an Orally-Active Benzoxaborole for the Treatment of Stage 2 Human African Trypanosomiasis” (PLoS Neglected Tropical Diseases, 2011).
# Where two headings read alike, the source gives them in different places.
# Key:
# [1] = Pharmacokinetics in uninfected mice; assay type: in vivo, mouse
# Procedure: (§1) The blood distribution, CNS disposition and pharmacokinetics of SCYX-7158 were evaluated in infected or non-infected rodents following intravenous or oral administration of compounds. Pharmacokinetics and bioavailability of SCYX-7158 were also evaluated in non-infected beagle dogs and cynomolgus monkeys. In-life phases of non-infected rodent studies were performed at Vivisource (Waltham, MA); studies in non-naïve cynomolgus monkeys were performed by SNBL USA (Everett, WA). Male CD-1 mice (∼25 g), male Sprague-Dawley rats (∼225 g), or male cynomolgus monkeys (∼3–5 kg) were administered test article by either bolus intravenous injection (IV) or oral gavage. Animals in the IV groups received a single 2 mg/kg IV dose. Animals received oral doses of test articles as either single or twice daily doses ranging from 8 mg/kg to 50 mg/kg. All doses were administered as clear colorless solutions in either 50% (v/v) PEG 400: 20% (v/v) ethanol: 30% (v/v) carboxymethylcellulose (0.5% w/v in sterile water for injection) or 2% (v/v) ethanol: 5% (w/v) dextrose in sterile water for injection. […] For pharmacokinetic analysis, blood samples were collected from mice via cardiac puncture under terminal anaesthesia. Serial blood samples were collected from rats via a vascular access port located in the lateral saphenous vein. Mice and rats were euthanized in a CO2 chamber before collection of terminal blood samples or brain tissue. Blood samples were collected into polypropylene tubes containing K2EDTA anticoagulant and stored on ice until centrifuged for the preparation of plasma. Plasma was stored at −70°C. Whole brains were collected following decapitation, blotted dry, placed into polypropylene containers and then immediately frozen at approximately −70°C. CSF was collected from rats via cisterna magna puncture, placed in sterile polypropylene tubes, and stored at approximately −70°C. […] Treated samples were gently mixed at room temperature for 10 min, and then centrifuged at approximately 3000×g for 15 min at 15°C. The supernatants were transferred to 96-well plates or HPLC vials for analysis by LC-MS/MS. Pharmacokinetic parameters were calculated from composite mean plasma or tissue data using non-compartmental (oral and intravenous routes) and bi-exponential (intravenous route) analyses in Microsoft Excel.
# T. b. brucei 427 = experiment: In vitro compound sensitivity assay (resazurin viability); assay type: cell-based; settings: T. b. brucei S427; at 10 µM
# Source text: The bloodstream-form T. b. brucei 427 strain was obtained from Dr. K. Stuart (Seattle Biomedical Research Institute, Seattle, WA) and was used for routine assessment of compound sensitivity in vitro. Additional strains used in vitro include T. b. rhodesiense STIB900, isolated in 1992 from a patient in Tanzania, and T. b. gambiense 108R, isolated from a patient in Democratic Republic of Congo in 2005. T. b. brucei EATRO 110 was a generous gift from the late William Trager of the Rockefeller University. T. b. brucei TREU 667 strains were kindly provided by F. W. Jennings at the University of Glasgow. Both T. b. brucei EATRO 110 and TREU 667 were cultured according to previously described conditions and used for in vivo studies.[18], [19]
# T. b. brucei was cultured in complete HMI-9 medium,[20] which contains 10% fetal bovine serum (FBS) (Invitrogen, Carlsbad, CA), 10% Serum Plus medium (SAFC Biosciences, Lenexa, KS), and 100 units/mL penicillin and 0.1 mg/mL streptomycin. The trypanosomes were propagated in T-25 vented cap flasks (Corning Inc., Lowell, MA) at 37°C and 5% CO2 with humidity. To ensure log growth phase, trypanosomes were sub-cultured at appropriate dilutions (typically 1∶100) every 2–3 days in fresh HMI-9 medium. T. b. rhodesiense parasites were grown in MEM medium with Earle's salts supplemented with 15% horse serum. For T. b. gambiense, the MEM medium was supplemented with 5% heat-inactivated fetal calf serum (FCS) and 15% human serum.[21] L929 mouse fibroblast cells (ATCC CCL1, American Type Culture Collection, Rockville, MD) were used to determine parasite versus mammalian cell selectivity. Cells were cultured in Dulbecco's Modified Eagle Medium (DMEM), supplemented with 10% FBS, L-glutamine and 100 units/mL penicillin and 0.1 mg/mL streptomycin. MDCKII-hMDR1 cells were generously provided by P. Borst at the Netherlands Kancer Institute. Cells were cultured in DMEM with Glutamax, 10% (v/v) FBS, and 100 units/mL penicillin and 0.1 mg/mL streptomycin. Cell monolayers were fed with cell culture media 24 h after seeding and used for permeability studies 3 days later.
# (§2) Compounds to be tested were serially diluted in DMSO and added to 96-well plates to give final concentrations ranging from 5 to 0.01 µg/mL. T. b. brucei parasites in the log phase of growth were diluted in HMI-9 media and added to each well for a final concentration of 1×10^4 parasites per well. For the sensitivity assays using T. b. rhodesiense and T. b. gambiense, pararasites were cultured in MEM supplemented with Baltz components (8), diluted in the aforementioned culture media, and added to each well at a density of 1×10^3 cells/well. The final concentration of DMSO was 0.5% and the total volume was 100 µL/well. After a 72 h incubation, resazurin (Sigma-Aldrich, St. Louis, MO) was added to each well [20 µL of 25 mg/100 mL stock in phosphate buffered saline (PBS)] and incubated for an additional 4–6 h.[22] To assess cell viability, fluorescence was quantified using an EnVision Multilabel Plate Reader (Perkin Elmer, Waltham, MA) at an excitation wavelength of 530 nm and emission of 590 nm. Triplicate data points were averaged to generate sigmoidal dose-response curves and determine IC50 values using XLfit curve fitting software from IDBS (Guilford, UK). The IC50 is defined as the amount of compound required to decrease parasite or cell viability by 50% compared to those grown in the absence of the test compound. […]
# CYP1A2 = molecular target: T1, CYP1A2 (Homo sapiens, UniProt P05177); experiment: P450-Glo cytochrome P450 inhibition; assay type: biochemical; settings: human recombinant CYP1A2
# T1 construct: purchased Promega Inc., Madison, WI
# Procedure: (§3) The potential for compound to exert drug-drug interactions that are mediated through inhibition of cytochrome P450 activities was assessed using P450-Glo assay kits (Promega Inc., Madison, WI). Assays for human cytochrome P450 isoforms 3A4, 1A2, 2C9, 2C19, and 2D6 were performed in triplicate according to the manufacturer's instructions over the concentration range 1–100 µM (n = 6 levels). Briefly, SCYX-7158 was added to membrane preparations containing human recombinant CYP450 enzymes together with luminogenic substrates specific to each isoform. Specific CYP450 inhibitors were included as positive controls (ketoconazole, CYP3A4; alpha-napthoflavone, 1A2; sulfaphenazole, CYP2C9; troglitazone, 2C19, and quinidine, CYP2D6). Reactions were initiated by addition of NADPH-regenerating solution and were allowed to incubate for an additional 15–30 min (isoform dependent). Luciferin detection reagent, containing the luciferin-labeled probe substrate, was then added. Luminescence was recorded on an EnVision Multilabel Plate Reader. Calculation of IC50 concentrations for each enzyme was determined using GraphPad Prism (V5.01).
# CYP3A4 = molecular target: T2, CYP3A4 (Homo sapiens, UniProt P08684); experiment: P450-Glo cytochrome P450 inhibition; assay type: biochemical; settings: human recombinant CYP3A4
# T2 construct: purchased Promega Inc., Madison, WI
# Procedure: as §3
# CYP2C9 = molecular target: T3, CYP2C9 (Homo sapiens, UniProt P11712); experiment: P450-Glo cytochrome P450 inhibition; assay type: biochemical; settings: human recombinant CYP2C9
# T3 construct: purchased Promega Inc., Madison, WI
# Procedure: as §3
# CYP2D6 = molecular target: T4, CYP2D6 (Homo sapiens, UniProt P10635); experiment: P450-Glo cytochrome P450 inhibition; assay type: biochemical; settings: human recombinant CYP2D6
# T4 construct: purchased Promega Inc., Madison, WI
# Procedure: as §3
# CYP2C19 = molecular target: T5, CYP2C19 (Homo sapiens, UniProt P33261); experiment: P450-Glo cytochrome P450 inhibition; assay type: biochemical; settings: human recombinant CYP2C19
# T5 construct: purchased Promega Inc., Madison, WI
# Procedure: as §3
# [2] = Pharmacokinetics in cynomolgus monkeys; assay type: in vivo, cynomolgus monkey
# Procedure: as §1
# [3] = Pharmacokinetics in uninfected rats; assay type: in vivo, rat
# Procedure: as §1
# [4] = Pharmacokinetics in uninfected mice; assay type: in vivo, mouse; settings: male, CD-1, mouse; oral dose of 56 mg/kg SCYX-7158, plasma
# [5] = mouse, in vivo, po; cited from earlier work
# T. b. brucei TREU 667 = settings: cited from earlier work
# GVR35 stage 2 HAT model = settings: ref R. Brun, personal communication, cited from earlier work
# T. b. brucei = experiment: Effect of serum on trypanocidal activity; assay type: cell-based; settings: 25% mouse serum or 50% bovine serum
# Procedure: as §2
# T5 sequence (P33261 whole entry): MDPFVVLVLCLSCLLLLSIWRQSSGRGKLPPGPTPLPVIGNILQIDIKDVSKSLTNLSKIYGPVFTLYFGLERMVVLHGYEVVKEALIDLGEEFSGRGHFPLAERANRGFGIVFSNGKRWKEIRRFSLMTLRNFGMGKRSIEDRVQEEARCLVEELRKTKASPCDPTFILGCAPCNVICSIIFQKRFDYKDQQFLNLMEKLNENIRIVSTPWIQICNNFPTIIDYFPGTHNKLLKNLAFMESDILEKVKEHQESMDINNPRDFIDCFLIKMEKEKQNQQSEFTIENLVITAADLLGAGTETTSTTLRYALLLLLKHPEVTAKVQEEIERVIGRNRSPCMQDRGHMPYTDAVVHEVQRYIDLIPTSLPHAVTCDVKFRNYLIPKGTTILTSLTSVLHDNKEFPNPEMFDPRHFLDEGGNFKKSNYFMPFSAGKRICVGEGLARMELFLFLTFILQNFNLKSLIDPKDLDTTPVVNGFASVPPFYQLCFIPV
# T4 sequence (P10635 whole entry): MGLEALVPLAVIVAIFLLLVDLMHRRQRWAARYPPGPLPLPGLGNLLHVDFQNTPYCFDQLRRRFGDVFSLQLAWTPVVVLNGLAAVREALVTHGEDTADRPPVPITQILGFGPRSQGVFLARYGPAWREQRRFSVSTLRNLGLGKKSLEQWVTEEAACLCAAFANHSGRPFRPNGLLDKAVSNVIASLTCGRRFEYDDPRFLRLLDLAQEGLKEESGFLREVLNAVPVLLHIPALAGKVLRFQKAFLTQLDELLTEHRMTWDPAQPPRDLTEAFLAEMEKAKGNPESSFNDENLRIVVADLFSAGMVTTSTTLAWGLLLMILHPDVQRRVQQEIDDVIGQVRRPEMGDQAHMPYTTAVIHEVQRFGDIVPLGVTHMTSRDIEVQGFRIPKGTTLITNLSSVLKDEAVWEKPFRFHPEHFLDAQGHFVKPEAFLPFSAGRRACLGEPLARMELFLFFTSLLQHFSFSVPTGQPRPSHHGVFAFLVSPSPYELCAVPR
# T1 sequence (P05177 whole entry): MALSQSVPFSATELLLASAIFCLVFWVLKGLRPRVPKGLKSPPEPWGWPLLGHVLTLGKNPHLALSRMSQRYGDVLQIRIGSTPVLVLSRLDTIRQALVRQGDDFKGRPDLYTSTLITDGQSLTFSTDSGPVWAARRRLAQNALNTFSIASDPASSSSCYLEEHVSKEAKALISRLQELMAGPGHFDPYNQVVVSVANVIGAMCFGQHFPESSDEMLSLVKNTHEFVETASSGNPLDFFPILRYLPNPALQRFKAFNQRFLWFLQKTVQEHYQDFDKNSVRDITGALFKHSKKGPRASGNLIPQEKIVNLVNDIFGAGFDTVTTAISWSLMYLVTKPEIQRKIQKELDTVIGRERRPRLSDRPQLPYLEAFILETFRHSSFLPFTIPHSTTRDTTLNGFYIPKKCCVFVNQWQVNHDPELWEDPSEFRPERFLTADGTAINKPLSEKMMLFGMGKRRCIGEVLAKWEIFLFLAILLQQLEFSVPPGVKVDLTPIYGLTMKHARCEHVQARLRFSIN
# T2 sequence (P08684 whole entry): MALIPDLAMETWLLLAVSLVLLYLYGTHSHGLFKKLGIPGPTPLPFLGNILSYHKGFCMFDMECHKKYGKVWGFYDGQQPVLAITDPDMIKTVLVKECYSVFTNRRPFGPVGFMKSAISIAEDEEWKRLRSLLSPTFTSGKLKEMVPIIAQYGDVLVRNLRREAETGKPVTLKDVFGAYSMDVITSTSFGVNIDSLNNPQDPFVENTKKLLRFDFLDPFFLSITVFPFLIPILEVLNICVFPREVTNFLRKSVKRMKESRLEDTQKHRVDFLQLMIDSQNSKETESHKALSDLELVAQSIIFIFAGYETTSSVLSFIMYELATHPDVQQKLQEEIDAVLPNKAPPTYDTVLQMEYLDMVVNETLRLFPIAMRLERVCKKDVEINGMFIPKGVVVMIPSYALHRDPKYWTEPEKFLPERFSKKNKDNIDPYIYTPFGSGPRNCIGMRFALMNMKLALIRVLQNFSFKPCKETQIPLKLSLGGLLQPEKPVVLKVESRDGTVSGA
# T3 sequence (P11712 whole entry): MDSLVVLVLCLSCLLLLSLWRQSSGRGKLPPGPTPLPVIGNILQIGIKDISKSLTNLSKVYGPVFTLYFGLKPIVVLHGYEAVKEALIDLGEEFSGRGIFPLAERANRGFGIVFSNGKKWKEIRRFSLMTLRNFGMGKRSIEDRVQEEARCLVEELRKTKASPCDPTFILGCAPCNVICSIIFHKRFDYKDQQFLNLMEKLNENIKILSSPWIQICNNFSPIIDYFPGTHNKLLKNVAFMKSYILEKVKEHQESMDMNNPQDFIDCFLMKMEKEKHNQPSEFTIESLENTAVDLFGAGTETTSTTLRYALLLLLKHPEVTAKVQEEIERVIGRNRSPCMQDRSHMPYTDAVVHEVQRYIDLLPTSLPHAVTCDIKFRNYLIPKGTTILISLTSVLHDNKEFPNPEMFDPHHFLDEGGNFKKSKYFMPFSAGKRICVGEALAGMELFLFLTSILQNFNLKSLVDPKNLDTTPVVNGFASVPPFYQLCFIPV
structure (smiles),measurement,setting,value
CC(C)(O)c1ccc(NC(=O)c2ccc(F)cc2C(F)(F)F)cc1O [SCYX-3109],metabolite plasma concentration as % of the SCYX-7158 concentration,"[1]; oral dose of 56 mg/kg SCYX-7158, all time points",approximately 1%
same,inhibition of parasite growth,T. b. brucei 427,inactive
same,IC50,CYP1A2,> 100 µM
same,IC50,CYP3A4,7.5 µM
same,IC50,CYP2C9,> 100 µM
same,IC50,CYP2D6,> 100 µM
same,IC50,CYP2C19,> 100 µM
same,metabolite plasma concentration as % of the SCYX-7158 concentration,"[2]; 10 mg/kg NG group, all time points",approximately 1%
same,AUC(0-inf),"[2]; male, cynomolgus monkey, oral, 10 mg/kg SCYX-7158 NG, plasma",6400 ng·h/mL
same,Cmax,"[2]; male, cynomolgus monkey, oral, 10 mg/kg SCYX-7158 nasogastric (NG), plasma",140 ng/mL
same,Cmax,"[3]; male, Sprague-Dawley, rat, oral dose of 10 mg/kg SCYX-7158, plasma, read-out: Cmax",500 ng/mL
same,metabolite plasma concentration as % of the SCYX-7158 concentration,"[3]; oral dose of 10 mg/kg SCYX-7158, each time point",3-5%
same,Cmax,[4],270 ng/mL
"O=C(Nc1ccc2c(c1)B(O)OC2)c1ccc(F)cc1C(F)(F)F [SCYX-6759, 4-fluoro-N-(1-hydroxy-1,3-dihydrobenzo[c][1], [2]oxaborol-6-yl)-2-trifluoromethylbenzamide]",time post-dose at which brain concentrations fell below the MIC,[5],approximately 12 h
same,efficacy in stage 2 mouse model,T. b. brucei TREU 667; 50 mg/kg twice-daily intraperitoneal (100 mg/kg/day) for 14 days,fully efficacious
same,efficacy in stage 2 mouse model,T. b. brucei TREU 667; 50 mg/kg twice-daily oral for 7 days,only partial efficacy
same,efficacy in stage 2 mouse model,T. b. brucei TREU 667; lower doses or once-daily paradigm,not active
"N=C(N)c1ccc(/N=N/Nc2ccc(C(=N)N)cc2)cc1 [berenil, diminazene, reference compound]",outcome in stage 2 model,T. b. brucei TREU 667; single 10 mg/kg i.p. on day 4 after infection (positive control),cured
same,outcome in stage 2 model,T. b. brucei TREU 667; single 10 mg/kg i.p. on day 21 after infection (negative control),do not sustain cures
same,time of re-infection of the hemolymphatic system (recrudescence),T. b. brucei TREU 667; treated 21 days after infection,35–42 days after infection
OB(O)O [boric acid],estimated maximum concentration of boric acid,"[1]; not measured, mice, 56 mg/kg oral SCYX-7158",0.05 µg/mL
same,estimated maximum concentration of boric acid (borate),"[2]; not measured, equimolar to SCYX-3109, 10 mg/kg NG SCYX-7158",≤ 0.02 µg/mL
same,estimated maximum concentration of boric acid,"[3]; not measured, rats, 10 mg/kg oral SCYX-7158",0.09 µg/mL
Nc1nc(N)nc(Nc2ccc([As]3SCC(CO)S3)cc2)n1 (centres unmarked) [melarsoprol],toxicity to mice,GVR35 stage 2 HAT model; 20 mg/kg QD x 5 days,toxic
same,dose needed to effect cure,GVR35 stage 2 HAT model; QD × 5 days,10 to 15 mg/kg
"Cc1ccc(C(=O)Nc2ccc(S(=O)(=O)O)c3cc(S(=O)(=O)O)cc(S(=O)(=O)O)c23)cc1NC(=O)c1cccc(NC(=O)Nc2cccc(C(=O)Nc3cc(C(=O)Nc4ccc(S(=O)(=O)O)c5cc(S(=O)(=O)O)cc(S(=O)(=O)O)c45)ccc3C)c2)c1 [suramin, reference compound]",attenuation of in vitro IC50,T. b. brucei,greater than 25 fold
